32 compounds from patent US20140309210A1, “INDAZOLE COMPOUNDS, COMPOSITIONS AND METHODS OF USE THEREOF” (Genentech, Inc., priority 2011, published 2014) can be followed below.

Molecules are shown by their SMILES.

The assay has as its target T1, purified ITK (Invitrogen PV3875) (Homo sapiens, UniProt Q08881).
T1 construct: purchased Invitrogen PV3875
T1 sequence (Q08881 1-620): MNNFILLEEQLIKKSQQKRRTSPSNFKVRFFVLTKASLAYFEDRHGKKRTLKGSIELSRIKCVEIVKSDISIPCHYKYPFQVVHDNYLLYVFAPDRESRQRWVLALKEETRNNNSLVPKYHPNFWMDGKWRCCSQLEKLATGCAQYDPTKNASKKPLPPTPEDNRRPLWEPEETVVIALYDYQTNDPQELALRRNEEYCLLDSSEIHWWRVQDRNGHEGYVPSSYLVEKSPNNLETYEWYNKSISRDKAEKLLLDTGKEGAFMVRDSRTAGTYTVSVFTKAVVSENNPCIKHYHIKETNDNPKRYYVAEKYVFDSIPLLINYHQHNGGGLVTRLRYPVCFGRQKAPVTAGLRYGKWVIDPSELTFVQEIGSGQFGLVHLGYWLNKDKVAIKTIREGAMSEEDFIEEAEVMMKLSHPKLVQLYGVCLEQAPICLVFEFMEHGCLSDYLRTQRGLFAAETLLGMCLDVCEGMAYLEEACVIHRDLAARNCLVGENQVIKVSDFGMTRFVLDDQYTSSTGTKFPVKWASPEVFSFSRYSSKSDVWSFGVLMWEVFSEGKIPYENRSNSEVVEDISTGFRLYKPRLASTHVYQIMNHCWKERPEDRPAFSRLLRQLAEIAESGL
The assay can be described thus: ITK peptide phosphorylation assay (Caliper LabChip or LCMS). It is filed as biochemical. The settings on record: Table 1, Examples 141-279. In outline:
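Purified human ITK peptide phosphorylation, quenched with EDTA (50 mM final) for Caliper LabChip separation or TCA (5% v/v final) for UPLC-MS/MS MRM quantification. Ki derived via Morrison tight-binding equation, corrected for competitive inhibition using ATP concentration relative to Km,app.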
On to `CN(C)CCC(c1cscn1)n1cc(NC(=O)c2n[nH]c3cc(-c4cn[nH]c4)ccc23)cn1` (centres unmarked) [Example 200, N-[1-[3-(dimethylamino)-1-thiazol-4-yl-propyl]pyrazol-4-yl]-6-(1H-pyrazol-4-yl)-1H-indazole-3-carboxamide], for which the Ki was 0.727 nM.

Regarding `CN(C)CCC(c1cscn1)n1cc(NC(=O)c2n[nH]c3cc(-c4cn[nH]c4)ccc23)cn1` (centres unmarked) [Example 201, N-[1-[3-(dimethylamino)-1-thiazol-4-yl-propyl]pyrazol-4-yl]-6-(1H-pyrazol-4-yl)-1H indazole-3-carboxamide], affinity was put at a Ki of 2.89 nM.

Compound `N#Cc1cccc(Cn2cc(NC(=O)c3n[nH]c4cc(-c5cncs5)ccc34)cn2)c1` [Example 202, N-[1-[(3-cyanophenyl)meth-yl]pyrazol-4-yl]-6-thiazol-5-yl-1H-indazole-3-carboxamide] gave a Ki of 5.77 nM.

With `Cn1ccc(-c2ccc3c(C(=O)Nc4cnn(Cc5cccc(C#N)c5)c4)n[nH]c3c2)n1` [Example 203, N-[1-[(3-cyanophenyl)meth-yl]pyrazol-4-yl]-6-(1-methylpyrazol-3-yl)-1H-indazole-3-carboxamide], the inhibition constant Ki stood at 1100 nM.

On to `O=C(Nc1cnn(Cc2ccccc2)c1)c1n[nH]c2cc(-c3cnccn3)ccc12` [Example 204, N-(1-benzyl-1H-pyrazol-4-yl)-6-(pyrazin-2-yl)-1H-indazole-3-carboxamide], for which the Ki is 37.8 nM.

For `O=C(Nc1cnn(Cc2ccccc2)c1)c1n[nH]c2cc(-c3ccnnc3)ccc12` [Example 205, N-(1-benzylpyrazol-4-yl)-6-pyridazin-4 yl-1H-indazole-3 carboxamide], the affinity, expressed as Ki, was 131 nM.

In the case of `N#Cc1ccc2c(C(=O)Nc3cnn(Cc4ccccc4)c3)n[nH]c2c1` [Example 206, N-(1-benzylpyrazol-4-yl)-6-cyano-1H-indazole-3-carboxamide], the inhibitory constant (Ki) was found to be 129 nM.

In turn, `O=C(Nc1cnn(Cc2ccccc2)c1)c1n[nH]c2cc(-c3cncc(Cl)c3)ccc12` [Example 207, N-(1-benzylpyrazol-4-yl)-6-(5-chloro-3-pyridyl)-1H-indazole-3-carboxamide] came in with a Ki of 9.39 nM.

Compound `COC1CCN(c2ccc3c(C(=O)Nc4cnn(Cc5cccc(C#N)c5)c4)n[nH]c3c2)C1` (centres unmarked) [Example 208, N-[1-[(3-cyanophenyl)meth-yl]pyrazol-4-yl]-6-(3-methoxypyrrolidin-1-yl)-1H-indazole-3-carboxamide] gave a Ki of 458 nM.

Compound `O=C(Nc1cnn(Cc2ccccc2)c1)c1n[nH]c2cc(-c3cnc4c(c3)CCCO4)ccc12` [Example 209, N-(1-benzylpyrazol-4-yl)-6-(3,4-dihydro-2H-pyrano[2,3-b]pyridin-6-yl)-1H-indazole-3-carboxamide] returned a Ki of 66.2 nM.

For `O=C(Nc1cnn(Cc2ccccc2)c1)c1n[nH]c2cc(-c3cncc(F)c3)ccc12` [Example 210, N-(1-benzylpyrazol-4-yl)-6-(5-fluoro-3-pyridyl)-1H-indazole-3-carboxamide], the affinity corresponds to a Ki of 5 nM.

In the case of `CCC(c1ccccc1)n1cc(NC(=O)c2n[nH]c3cc(-c4cncc(OC)c4)ccc23)cn1` (centres unmarked) [Example 211, 6-(5-methoxy-3-pyridyl)-N-[1-(1-phenylpropyl)py-razol-4-yl]-1H-indazole-3-carboxamide], the affinity corresponds to a Ki of 53.8 nM.

`COc1cncc(-c2ccc3c(C(=O)Nc4cnn(C(CCN(C)C)c5ccccc5)c4)n[nH]c3c2)c1` (centres unmarked) [Example 212, N-[1-[3-(dimethylamino)-1-phenyl-propyl]pyrazol-4-yl]-6-(5-methoxy-3-pyridyl)-1H-indazole-3-carboxamide] registered a Ki of 1.64 nM.

With `COc1cncc(-c2ccc3c(C(=O)Nc4cnn(C(CCN(C)C)c5ccccc5)c4)n[nH]c3c2)c1` (centres unmarked) [Example 213, N-[1-[3-(dimethylamino)-1-phenyl-propyl]pyrazol-4-yl]-6-(5-methoxy-3-pyridyl)-1H-indazole-3-carboxamide], the Ki was 8.01 nM.

For `CCC(c1ccccc1)n1cc(NC(=O)c2n[nH]c3cc(-c4cncc(OC)c4)ccc23)cn1` (centres unmarked) [Example 214, 6-(5-methoxy-3-pyridyl)-N-[1-(1-phenylpropyl)py-razol-4-yl]-1H-indazole-3-carboxamide], the Ki stood at 7.17 nM.

For `COc1cncc(-c2ccc3c(C(=O)Nc4cnn(Cc5cccnc5)c4)n[nH]c3c2)c1` [Example 215, 6-(5-methoxy-3-pyridyl)-N-[1-(3-pyridylmethyl)py-razol-4-yl]-1H-indazole-3-carboxamide], the Ki is 17.2 nM.

Turning to `O=C(Nc1cnn(Cc2cccnc2)c1)c1n[nH]c2cc(-c3cn[nH]c3)ccc12` [Example 216, 6-(1H-pyrazol-4-yl)-N-[1-(3-pyridylmethyl)py-razol-4-yl]-1H-indazole-3-carboxamide], affinity was put at a Ki of 1.12 nM.

Take `CNc1cc(-c2ccc3c(C(=O)Nc4cnn(Cc5ccccc5)c4)n[nH]c3c2)ncn1` [Example 217, N-(1-benzylpyrazol-4-yl)-6-[6-(methylamino)py-rimidin-4-yl]-1H-indazole-3-carboxamide]: the affinity, expressed as Ki, was 404 nM.

Take `O=C(Nc1cnn(Cc2ccncc2)c1)c1n[nH]c2cc(-c3cn[nH]c3)ccc12` [Example 218, 6-(1H-pyrazol-4-yl)-N-[1-(4-pyridylmethyl)py-razol-4-yl]-1H-indazole-3-carboxamide]: the Ki amounted to 3.19 nM.

The compound `COc1cncc(-c2ccc3c(C(=O)Nc4cnn(Cc5ccncc5)c4)n[nH]c3c2)c1` [Example 219, 6-(5-methoxy-3-pyridyl)-N-[1-(4-pyridylmethyl)py-razol-4-yl]-1H-indazole-3-carboxamide] returned an inhibitory constant (Ki) of 23 nM.

In turn, `O=C(Nc1cnn(Cc2ccccn2)c1)c1n[nH]c2cc(-c3cn[nH]c3)ccc12` [Example 220, 6-(1H-pyrazol-4-yl)-N-[1-(2-pyridylmethyl)py-razol-4-yl]-1H-indazole-3-carboxamide] gave a Ki of 2.93 nM.

`COc1cncc(-c2ccc3c(C(=O)Nc4cnn(Cc5ccccn5)c4)n[nH]c3c2)c1` [Example 221, 6-(5-methoxy-3-pyridyl)-N-[1-(2-pyridylmethyl)py-razol-4-yl]-1H-indazole-3-carboxamide] registered a Ki of 51.4 nM.

Compound `COc1cncc(-c2ccc3c(C(=O)Nc4cnn(CC5CCCCC5)c4)n[nH]c3c2)c1` [Example 222, N-[1-(cyclohexylmeth-yl)pyrazol-4-yl]-6-(5-methoxy-3-pyridyl)-1H-indazole-3-carboxamide] registered a Ki of 75.3 nM.

`COc1cncc(-c2ccc3c(C(=O)Nc4cnn(C(C)C)c4)n[nH]c3c2)c1` [Example 223, N-(1-isopropylpyrazol-4-yl)-6-(5-methoxy-3-pyridyl)-1H-indazole-3-carboxamide] gave a Ki of 90 nM.

Regarding `N#Cc1cccc(Cn2cc(NC(=O)c3n[nH]c4cc(-c5cncc(Cl)c5)ccc34)cn2)c1` [Example 224, 6-(5-chloro-3-pyridyl)-N-[1-[(3-cyanophenyl)meth-yl]pyrazol-4-yl]-1H-indazole-3-carboxamide], the Ki came to 5.18 nM.

Regarding `O=C(Nc1cnn(Cc2cccnn2)c1)c1n[nH]c2cc(-c3cn[nH]c3)ccc12` [Example 225, 6-(1H-pyrazol-4-yl)-N-[1-(pyridazin-3-ylmethyl)pyrazol-4-yl]-1H-indazole-3-carboxamide], the Ki came to 4.85 nM.

Consider `O=C(Nc1cnn(Cc2cncnc2)c1)c1n[nH]c2cc(-c3cn[nH]c3)ccc12` [Example 226, 6-(1H-pyrazol-4-yl)-N-[1-(pyrimidin-5-ylmethyl)pyrazol-4-yl]-1H-indazole-3-carboxamide], for which the Ki came out at 1.12 nM.

Compound `O=C(Nc1cnn(Cc2cnc(N3CCOCC3)nc2)c1)c1n[nH]c2cc(-c3cn[nH]c3)ccc12` [Example 227, N-[1-[(2-morpholinopy-rimidin-5-yl)methyl]pyrazol-4-yl]6-(1H-pyrazol-4-yl)-1H-indazole-3-carboxamide] gave a Ki of 2.36 nM.

Consider `COCCN(C)CC(c1cccnc1)n1cc(NC(=O)c2n[nH]c3cc(-c4cncc(OC)c4)ccc23)cn1` (centres unmarked) [Example 228, N-[1-[2-[2-methoxyethyl(meth-yl)amino]-1-(3-pyridyl)ethyl]py-razol-4-yl]-6-(5-methoxy-3-pyridyl)-1H-indazole-3-carboxamide], for which the Ki came out at 5.54 nM.

The compound `COCCN(C)CC(c1cccnc1)n1cc(NC(=O)c2n[nH]c3cc(-c4cncc(OC)c4)ccc23)cn1` (centres unmarked) [Example 229, N-[1-[2-[2-methoxyethyl(meth-yl)amino]-1-(3-pyridyl)ethyl]py-razol-4-yl]-6-(5-methoxy-3-pyridyl)-1H-indazole-3-carboxamide] showed a Ki of 32.4 nM.

The compound `O=C(Nc1cnn(Cc2ccccc2)c1)c1n[nH]c2c(F)cccc12` [Example 230, N-(1-benzylpyrazol-4-yl)-7-fluoro-1H-indazole-3-carboxamide] showed a Ki of 726 nM.

`CN1CCOc2cc(-c3ccc4c(C(=O)Nc5cnn(Cc6cccnc6)c5)n[nH]c4c3)cnc21` [Example 231, 6-(4-methyl-2,3-dihydropyrido[3,2-b][1,4]oxazin-7-yl)-N-[1-(3-pyridylmethyl)py-razol-4-yl]-1H-indazole-3-carboxamide]: affinity was put at a Ki of 40.8 nM.
